The target in one test is T1, Rat NHE3 (Rattus norvegicus, UniProt P26433).
T1 construct: expressed in transfected cells; host or cells: Opossum kidney (OK) cells (ATCC), electroporation
The test can be described thus: Cell-based NHE3 activity under prompt conditions (OK cells, BCECF pH recovery), rat NHE3. The conditions noted are these: for IC50 / Prompt Rat NHE3 pIC50: prompt conditions; for IC50: read-out: Prompt Rat NHE3 pIC50 (converted). The procedure:
(§1) Cell-based activity under Prompt Conditions. Rat or human NHE3-mediated Na^+-dependent H antiport was measured using a modification of the pH sensitive dye method originally reported by Paradiso (PNAS USA. 81:7436-7440, 1984). Opossum kidney (OK) cells were obtained from the ATCC and propagated per their instructions. The rat NHE3 gene (GenBank M85300) or the human NHE3 gene (GenBank NM_004174.1) was introduced into OK cells via electroporation, and cells were seeded into 96 well plates and grown overnight. Medium was aspirated from the wells, cells were washed twice with NaCl-HEPES buffer (100 mM NaCl, 50 mM HEPES, 10 mM glucose, 5 mM KCl, 2 mM CaCl2, 1 mM MgCl2, pH 7.4), then incubated for 30 min at room temperature with NH4Cl-HEPES buffer (20 mM NH4Cl, 80 mM NaCl, 50 mM HEPES, 5 mM KCl, 2 mM CaCl2, 1 mM MgCl2, pH 7.4) containing 5 μM bis(acetoxymethyl) 3,3′-(3′,6′-bis(acetoxymethoxy)-5-((acetoxymethoxy)carbonyl)-3-oxo-3H-spiro[isobenzofuran-1,9′-xanthene]-2′,7′-diyl)dipropanoate (BCECF-AM).
(§2) Cells were washed twice with Ammonium free, Na^+-free HEPES (100 mM choline, 50 mM HEPES, 10 mM glucose, 5 mM KCl, 2 mM CaCl2, 1 mM MgCl2, pH 7.4) and incubated in the same buffer for 10 minutes at room temperature to lower intracellular pH. […] Initial rates were plotted as the average 2 or more replicates, and pIC50 values were estimated using GraphPad Prism.
(§3) Cell-based activity of NHE3 Activity under ‘Prompt’ Conditions. This assay was performed as described in Example 1 (supra).

Another test concerns the target T2, Human NHE3 (Homo sapiens, UniProt P48764).
T2 construct: expressed in transfected cells; host or cells: Opossum kidney (OK) cells (ATCC), electroporation
T2 sequence (P48764 26-834): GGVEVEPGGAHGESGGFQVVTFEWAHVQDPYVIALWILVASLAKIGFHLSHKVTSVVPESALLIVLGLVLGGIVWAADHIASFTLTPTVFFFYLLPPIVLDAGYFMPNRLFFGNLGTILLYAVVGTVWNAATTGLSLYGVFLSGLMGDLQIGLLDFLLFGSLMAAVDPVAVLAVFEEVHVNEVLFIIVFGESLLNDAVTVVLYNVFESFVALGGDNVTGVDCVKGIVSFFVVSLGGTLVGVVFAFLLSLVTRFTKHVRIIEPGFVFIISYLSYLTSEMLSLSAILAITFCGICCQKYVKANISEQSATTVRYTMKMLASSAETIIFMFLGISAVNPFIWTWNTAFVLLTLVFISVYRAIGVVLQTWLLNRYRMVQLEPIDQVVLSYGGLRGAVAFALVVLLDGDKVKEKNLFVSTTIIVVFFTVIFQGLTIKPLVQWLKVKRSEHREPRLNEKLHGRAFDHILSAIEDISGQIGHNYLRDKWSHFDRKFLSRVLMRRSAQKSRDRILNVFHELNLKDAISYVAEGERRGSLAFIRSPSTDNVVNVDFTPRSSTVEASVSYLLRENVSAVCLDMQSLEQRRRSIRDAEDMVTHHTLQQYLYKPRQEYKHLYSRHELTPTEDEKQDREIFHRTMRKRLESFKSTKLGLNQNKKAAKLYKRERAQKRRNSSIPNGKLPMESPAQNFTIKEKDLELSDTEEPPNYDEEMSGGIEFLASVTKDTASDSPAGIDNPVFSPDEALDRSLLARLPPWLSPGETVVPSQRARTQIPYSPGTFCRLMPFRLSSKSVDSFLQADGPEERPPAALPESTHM
Briefly: Cell-based NHE3 activity under prompt conditions (OK cells, BCECF pH recovery), human NHE3. The procedure: as §1, §2, §3

Test [1] has as its system absorption of sodium from the intestinal lumen. Briefly: Inhibition of intestinal sodium absorption: urinary sodium (uNa) 16 h after single oral dose in rats. The test is classed as in vivo, rat. Particulars: for Urine Na % of control: oral gavage, 16 h post-dose. The procedure:
(§4) Inhibition of intestinal sodium and phosphate absorption. Urinary sodium concentration and fecal form were measured to assess the ability of selected example compounds to inhibit the absorption of sodium from the intestinal lumen. Eight-week old Sprague-Dawley rats were purchased from Charles River Laboratories (Hollister, CA), were housed 2 per cage, and acclimated for at least 3 days before study initiation. Animals were fed Harlan Teklad Global 2018 rodent chow (Indianapolis, IN) and water ad libitum throughout the study and maintained in a standard light/dark cycle of 6 AM to 6 PM. On the day of the study, between 4 PM and 5 PM, a group of rats (n=6) were dosed via oral gavage with test compound, or a pharmaceutically acceptable salt thereof, or vehicle (water) at a volume of 10 mL/kg.
(§5) After dose administration animals were placed in individual metabolic cages where they were also fed the same chow in meal form and watered ad libitum. At 16 h post-dose, the urine samples were collected and fecal form was assessed by two independent observations. Fecal forms were scored according to a common scale associated with increasing fecal water to the wettest observation in the cage's collection funnel (1, normal pellet; 2, pellet adhering to sides of collection funnel due to moisture; 3, loss of normal pellet shape; 4, complete loss of shape with a blotting pattern; 5, liquid fecal streams evident). A rat's fecal form score (FFS) was determined by averaging both observational scores for all rats within a group (n=6). The vehicle group average was 1.
For urine samples, the volumes were determined gravimetrically and centrifuged at 3,600×g. The supernatants were diluted 100-fold in deionized Milli-Q water then filtered through a 0.2 μm GHP Pall AcroPrep filter plate (Pall Life Sciences, Ann Arbor, MI) prior to analysis by ion chromatography. Ten microliters of each filtered extract was injected onto a Dionex ICS-3000 ion chromatograph system (Dionex, Sunnyvale, CA). Cations were separated by an isocratic method using 25 mM methanesulfonic acid as the eluent on an IonPac CS12A 2 mm i.d.×250 mm, 8 μm particle size cation exchange column (Dionex). Sodium was quantified using standards prepared from a cation standard mix containing Li^+, Na^+, NH4^+, K^+, Mg^2+, and Ca^2+ (Dionex). The mean mass of sodium urinated for every group in the 16 h period was determined with the vehicle group usually urinating approximately 21 mg sodium. The urine Na (uNa) for rats in the test groups were expressed as a percentage of the vehicle mean and the means were compared to that of the vehicle group by utilizing a one-way analysis of variance coupled with a Dunnett's post hoc test.
Further experiments were performed to test the compounds under the persistent and prompt conditions described above, and to test their effects on urinary excretion of sodium in rats. The latter was performed by orally dosing the compounds in rats (single dose) and measuring urinary Na excretion (as a % of vehicle). The results are indicated as percentage of urinary sodium (UNa %); low values indicate relatively active compounds.

Test [2] has the same test system. Briefly: Fecal form score (FFS) 16 h after oral dose in rats. In kind it is in vivo, rat. Particulars: oral gavage, 16 h post-dose, scale 1-5. The procedure:
as §4, §5

Test [3] deals with phosphorus and calcium levels in the urine of rats. Briefly: Urinary excretion of phosphate and calcium in rats (16 h overnight urine). Particulars: rats, oral gavage, 16 h post-dose. In kind it is in vivo, rat.
Where [4] appears, read: prompt conditions, read-out: Prompt Human NHE3 pIC50 (converted).

Like-named read-outs stand apart in the source and are kept apart here.

T1 sequence (P26433 29-831): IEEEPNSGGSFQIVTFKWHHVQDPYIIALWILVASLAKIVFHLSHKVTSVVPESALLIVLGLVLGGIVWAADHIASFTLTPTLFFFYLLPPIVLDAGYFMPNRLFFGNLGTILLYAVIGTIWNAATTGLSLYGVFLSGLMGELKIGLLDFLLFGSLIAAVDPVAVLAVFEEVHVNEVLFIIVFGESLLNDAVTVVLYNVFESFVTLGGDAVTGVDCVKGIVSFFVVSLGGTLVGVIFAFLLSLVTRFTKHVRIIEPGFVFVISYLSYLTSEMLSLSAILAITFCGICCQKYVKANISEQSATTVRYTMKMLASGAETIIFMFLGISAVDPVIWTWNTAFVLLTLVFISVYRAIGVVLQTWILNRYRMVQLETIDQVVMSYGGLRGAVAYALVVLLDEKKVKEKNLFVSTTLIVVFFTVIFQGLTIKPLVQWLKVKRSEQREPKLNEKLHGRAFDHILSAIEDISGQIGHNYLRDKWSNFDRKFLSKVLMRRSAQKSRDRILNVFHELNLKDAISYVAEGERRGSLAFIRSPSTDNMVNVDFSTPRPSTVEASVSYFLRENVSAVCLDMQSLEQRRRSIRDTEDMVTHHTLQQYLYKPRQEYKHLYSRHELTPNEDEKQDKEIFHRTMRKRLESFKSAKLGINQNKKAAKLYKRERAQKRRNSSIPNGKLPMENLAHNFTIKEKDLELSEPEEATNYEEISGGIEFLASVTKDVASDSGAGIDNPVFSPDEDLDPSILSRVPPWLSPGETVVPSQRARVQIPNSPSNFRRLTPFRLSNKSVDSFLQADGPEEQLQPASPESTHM

On to `O=C(NCCOCCOCCOCCNS(=O)(=O)c1ccc(OC2c3ccccc3CC2N2CCCCC2)cc1)C(O)C(O)C(=O)NCCOCCOCCOCCNS(=O)(=O)c1ccc(OC2c3ccccc3CC2N2CCCCC2)cc1` (mixture of isomers) [compound 55], for which the results for the IC50 at Rat NHE3 and on Human NHE3 (setting [4]) were 20 nM and 12.6 nM, respectively. In addition, the “Urine Na % of control” value in test [1] (dose 10 mg/kg) came to 85%. For the same compound, the “Fecal Form Score average” value in test [2] (dose 10 mg/kg) was determined as 1. Further, the “Urine P % of control” value in test [3] (dose 10 mg/kg) was 45%.
The like results for `NS(=O)(=O)c1ccc(O[C@H]2c3ccccc3C[C@@H]2N2CCCCC2)cc1` (racemic) [compound 38] were, in that order, 3160 nM, 2510 nM, 101%, 1 and 120%.
The like results for `O=C(NCCCCNC(=O)NCCOCCOCCNS(=O)(=O)c1ccc(O[C@H]2c3ccccc3C[C@@H]2N2CCCCC2)cc1)NCCOCCOCCNS(=O)(=O)c1ccc(O[C@H]2c3ccccc3C[C@@H]2N2CCCCC2)cc1` (racemic) [compound 47] were, in that order, 50.1 nM, 15.8 nM, 73%, 1 and 51%.
The like results for `O=C(O)CN(CCN(CC(=O)O)CC(=O)NCCOCCOCCNS(=O)(=O)c1ccc(O[C@H]2c3ccccc3C[C@@H]2N2CCCCC2)cc1)CC(=O)NCCOCCOCCNS(=O)(=O)c1ccc(O[C@H]2c3ccccc3C[C@@H]2N2CCCCC2)cc1` (racemic) [compound 48] were, in that order, 28.2 nM, 79.4 nM, 68%, 1 and 55%.
For the compound `O=C(NCCCCNC(=O)NCCOCCOCCOCCNS(=O)(=O)c1ccc(O[C@H]2c3ccccc3C[C@@H]2N2CCCCC2)cc1)NCCOCCOCCOCCNS(=O)(=O)c1ccc(O[C@H]2c3ccccc3C[C@@H]2N2CCCCC2)cc1` (racemic) [compound 51], the “Prompt Rat NHE3 pIC50” value at Rat NHE3 was 7.40. Moreover, the “Prompt Human NHE3 pIC50” value on Human NHE3 (prompt conditions) is 7.90. Moreover, the “Urine Na % of control” value in test [1] (dose 10 mg/kg) was 79%. Further, the “Fecal Form Score average” value in test [2] (dose 10 mg/kg) worked out at 1. Moreover, the “Urine P % of control” value in test [3] (dose 10 mg/kg) was determined as 52%.
The like results for `O=C(CCOCCOCCOCCOCCOCCC(=O)NCCOCCOCCNS(=O)(=O)c1ccc(OC2c3ccccc3CC2N2CCCCC2)cc1)NCCOCCOCCNS(=O)(=O)c1ccc(OC2c3ccccc3CC2N2CCCCC2)cc1` (racemic) [compound 54] were, in that order, 7.30, 7.50, 75%, 1 and 72%.
`CN1Cc2c(Cl)cc(Cl)cc2[C@H](c2cccc(NC(=O)[C@H](O)[C@@H](O)[C@H](O)[C@H](O)CO)c2)C1` [Cpd 001]: the “Rat NHE3 pIC50 Prompt” value on Rat NHE3 (Table E5, 001 free base, 002-005 dihydrochloride salt) amounted to 7.6. Besides, the IC50 at Human NHE3 (Table E5, 001 free base, 002-005 dihydrochloride salt, read-out: Human NHE3 pIC50 Prompt (converted)) was 39.8 nM. Moreover, the “UNa (%)” value in test [1] (urinary Na excretion as % of vehicle, single oral dose 1 mg/kg) is given as 41 @ 1 mg/kg %.
Turning to `CN1Cc2c(Cl)cc(Cl)cc2[C@H](c2cccc(S(=O)(=O)NCCOCCOCCOCCNC(=O)[C@@H](O)[C@H](O)C(=O)NCCOCCOCCOCCNS(=O)(=O)c3cccc([C@@H]4CN(C)Cc5c(Cl)cc(Cl)cc54)c3)c2)C1` [compound 6], the “Prompt Human NHE3 pIC50” value at Human NHE3 (prompt conditions) came out at 8.30. Moreover, the “Urine Na % of control” value in test [1] (dose 1 mg/kg) worked out at 21%. For the same compound, the “Fecal Form Score average” value in test [2] (dose 1 mg/kg) is 2. In test [3] (dose 1 mg/kg), the “Urine P % of control” value is reported as 46%.
As to `CC(C)CCC[C@@H](C)[C@H]1CC[C@H]2[C@@H]3CC=C4C[C@@H](OC(=O)NCCOCCOCCOCCNS(=O)(=O)c5cccc([C@@H]6CN(C)Cc7c(Cl)cc(Cl)cc76)c5)CC[C@]4(C)[C@H]3CC[C@]12C` [compound 125], the “Prompt Rat NHE3 pIC50” value at Rat NHE3 is given as under 5.00. Besides, in test [1] (dose 10 mg/kg), the “Urine Na % of control” value was found to be 81%. The “Fecal Form Score average” value in test [2] (dose 10 mg/kg) was 1. Also, the “Urine P % of control” value in test [3] (dose 10 mg/kg) is 278%.
As to `O=C(NCCCCNC(=O)NCCOCCOCCNS(=O)(=O)c1ccc(O[C@H]2c3cc(Cl)cc(F)c3C[C@@H]2N2CCCCC2)cc1)NCCOCCOCCNS(=O)(=O)c1ccc(O[C@H]2c3cc(Cl)cc(F)c3C[C@@H]2N2CCCCC2)cc1` [compound 160], the “Prompt Human NHE3 pIC50” value on Human NHE3 (prompt conditions) amounted to 7.70. Moreover, in test [1] (dose 10 mg/kg), the “Urine Na % of control” value is on record as 108%. For the same compound, in test [2] (dose 10 mg/kg), the “Fecal Form Score average” value turned out to be 1. Further, in test [3] (dose 10 mg/kg), the “Urine P % of control” value turned out to be 77%.
The like results for `CN(C)[C@H]1Cc2c(Cl)cc(Cl)cc2[C@@H]1Oc1ccc(S(=O)(=O)NCCOCCOCCNC(=O)NCCCCNC(=O)NCCOCCOCCN(C)S(=O)(=O)c2ccc(O[C@H]3c4cc(Cl)cc(Cl)c4C[C@@H]3N(C)C)cc2)cc1` [compound 171] were, in that order, 8.20, 49%, 1 and 49%.
As to `CC(O)C(CCC(=O)NCCOCCOCCNS(=O)(=O)c1cccc([C@@H]2CN(C)Cc3c(Cl)cc(Cl)cc32)c1)(CCC(=O)NCCOCCOCCNS(=O)(=O)c1cccc([C@@H]2CN(C)Cc3c(Cl)cc(Cl)cc32)c1)CCC(=O)NCCOCCOCCNS(=O)(=O)c1cccc([C@@H]2CN(C)Cc3c(Cl)cc(Cl)cc32)c1` (stereo partly drawn) [compound 173], the “Prompt Rat NHE3 pIC50” value on Rat NHE3 is 7.60. In addition, on Human NHE3 (prompt conditions), the “Prompt Human NHE3 pIC50” value is reported as 8.10.

Values taken from US20240366589A1, “NHE3-BINDING COMPOUNDS AND METHODS FOR INHIBITING PHOSPHATE TRANSPORT” (Ardelyx, Inc., priority 2013, published 2024).
